{
  "source": "patent US7618787B2",
  "about": "“Method of screening compound capable of accelerating or inhibiting apoptosis, apoptosis accelarator and apoptosis inhibitor” (Hisamitsu Pharmaceutical Co., Inc., priority 2004, dated 2009)",
  "key": {"NF-κB [1]": {"system": "NF-κB", "assay": "NF-κB reporter activation in L929 cells", "format": "cell-based, mouse", "settings": "L929 cells (FIG. 8)", "procedure": "(§1) As described above, the amount of nuclear transactivating p65 subunit was not changed in U2OS cells treated with cisplatin. […] U2OS cells transfected with a NF-κB reporter plasmid were treated with cisplatin and assayed for their luciferase activities. […] L929 cells have been used widely for examining the TNF-α-dependent activation of NF-κB."}, "L929 cells": {"system": "L929 cells", "assay": "Immunoblot of nuclear and cytoplasmic fractions of L929 cells", "format": "cell-based, mouse", "settings": "L929 cells (FIG. 9)", "procedure": "(§2) To prepare nuclear and cytoplasmic extracts, cells were washed with ice-cold PBS and suspended in lysis buffer (pH 7.5; which contained 10 mM Tris-Cl, 1 mM EDTA, 0.5% Nonidet P-40 (NP-40), 1 mM PMSF, and protease inhibitor mix (Sigma)). The suspended cells were incubated at 4° C. for 30 minutes and centrifuged at 5000 rpm for 10 minutes to collect soluble fractions (which were used as cytoplasmic extracts). Insoluble fractions were washed with lysis buffer and dissolved in 1×Laemmli SDS-sample buffer (pH 6.8; which contained 62.5 mM Tris-Cl, 2% SDS, 2% β-mercaptoethanol, and 0.01% bromophenol blue) to collect nuclear extracts. The nuclear and cytoplasmic fractions were subjected to immunoblot analysis using an anti-lamin B monoclonal (Ab-1; Oncogene Research Products) or anti-α-tubulin monoclonal (DM1A; Cell Signaling Technology) antibody.\nas §1"}, "NF-κB [2]": {"system": "NF-κB", "assay": "NF-κB reporter luciferase assay in U2OS cells", "format": "cell-based, human", "settings": "U2OS cells transfected with NF-κB reporter plasmid (FIG. 7)", "procedure": "as §1"}, "U2OS cells [3]": {"system": "U2OS cells", "assay": "Immunoblot of cell lysates of U2OS cells treated with cisplatin", "format": "cell-based, human", "procedure": "Cells were transiently transfected with a total of 2 μg of expression plasmids. After 48 hours of the transfection, the cells were washed with ice-cold PBS and suspended in lysis buffer (pH 8.0; which contained 25 mM Tris-Cl, 137 mM sodium chloride, 1% Triton X-100, 1 mM phenylmethylsulfonyl fluoride (PMSF), and protease inhibitor mix (Roche Molecular Biochemicals)), followed by brief sonication. After centrifugation at 15000 rpm for 10 minutes, the supernatant was collected and assayed for protein concentrations by the Bradford assay (Bio-Rad). Equal amounts of lysates (protein amount: 50 μg) from the whole cells were denatured by boiling in Laemmli SDS-sample buffer, then separated on 10% SDS-polyacrylamide gel (SDS-PAGE), and transferred at room temperature for 1 hour to polyvinylidene difluoride (PVDF) membranes (Immobilon-P; Millipore) in Tris-glycine buffer containing 10% methanol. The membranes were blocked at room temperature for 1 hour with Tris-buffered saline (TBS-T) containing 5% skim milk and 0.1% Tween 20. Then, the membranes were reacted with an anti-FLAG monoclonal (M2; Sigma), anti-HA monoclonal (12CA5; Roche Molecular Biochemicals), anti-p73 monoclonal (Ab-4; NeoMarkers), anti-p53 monoclonal (DO-1; Oncogene Research Products), anti-Bax monoclonal (6A7; eBioscience), anti-IKK-α polyclonal (M-280; Santa Cruz Biotechnology), anti-IKK-β polyclonal (H-470; Santa Cruz Biotechnology), anti-IKK-γ polyclonal (FL-417; Santa Cruz Biotechnology), anti-p65 polyclonal (C-20; Santa Cruz Biotechnology), anti-IκB-α polyclonal (C-21; Santa Cruz Biotechnology), anti-actin polyclonal (20-33, Sigma), or anti p21^WAF1 polyclonal (H-164; Santa Cruz Biotechnology) antibody used as a primary antibody. After the reaction with the primary antibody, the membranes were reacted at room temperature for 1 hour with a horseradish peroxidase (HRP)-labeled goat anti-mouse or anti-rabbit secondary antibody (Cell Signaling Technologies) diluted 2000-fold in TBS-T. Immunoreactive proteins were finally visualized by use of an enhanced chemiluminescence system (ECL; Amersham Pharmacia Biotech) according to the manufacturer's instruction."}, "U2OS cells [4]": {"system": "U2OS cells", "assay": "Cell survival assay (MTT) of cisplatin-exposed cells", "format": "cell-based, human", "settings": "cisplatin 20 μM, time course (FIG. 1)", "procedure": "U2OS cells were seeded at a density of 5×10^3 cells/well to a 96-well tissue culture dish supplemented with 100 μL of complete medium, and then allowed to adhere thereto overnight. A cisplatin stock solution was filtered and sterilized with a filter of 0.45 μm in pore size and diluted with phosphate-buffered saline (PBS). Cisplatin was added at the final concentration of 20 μM to the cultures, followed by cell viability assay. The viability was assayed by a modified 3-(4,5-dimethylthiazol-2-yl)-2,5-diphenyl-tetrazolium bromide (MTT) assay at given time points after the cisplatin addition. The MTT assay was performed by adding 10 μL of MTT solution to each well and incubating the cultures at 37° C. for 1 hour. A microplate reader (Model 450; Bio-Rad) was used to measure the absorbance of each well at 570 nm."}, "U2OS cells [5]": {"system": "U2OS cells", "assay": "RT-PCR analysis of RNA from U2OS cells treated with cisplatin", "format": "cell-based, human", "procedure": "Total RNA was extracted from U2OS cells exposed to cisplatin (final concentration: 20 μM) by use of RNeasy Mini Kit (Qiagen) according to the manufacturer's protocol. Reverse transcription reaction was performed by mixing the total RNA (5 μg) with SuperScript II reverse transcriptase (Invitrogen) and random primers and incubating the mixture at 42° C. for 1 hour. After the completion of the reaction, cDNA was diluted with water and amplified with 15 μL of reaction solution (which contained 100 μM of each deoxynucleoside triphosphate, 1×PCR buffer, 1 μM of each primer, and 0.2 units of rTaq DNA polymerase (Takara Bio)). GAPDH expression was assayed and used as an internal standard. The PCR amplification products were separated by electrophoresis with 1.5% agarose gel in TAE buffer (40 mM Tris-Cl, 1 mM EDTA) and visualized with ethidium bromide (post-staining)."}, "U2OS cells [6]": {"system": "U2OS cells", "assay": "Immunoblot of nuclear and cytoplasmic fractions of U2OS cells treated with cisplatin", "format": "cell-based, human", "procedure": "as §2, with “antibody. Nuclear and cytoplasmic extracts were prepared from cisplatin-exposed or untreated U2OS cells and subjected to immunoblot with a given antibody. The purity of the nuclear and cytoplasmic fractions was confirmed by immunoblot using anti-lamin B and anti-α-tubulin antibodies, respectively. In agreement with the previously reported results, IKK-α was localized in both the nucleus and the cytoplasm, whereas IKK-β was largely expressed in the cytoplasm (FIG. 4). The amounts of IKK-α, IKK-β, and IKK-γ in the cytoplasm were not changed regardless of cisplatin treatment.” for “antibody.”"}},
  "data": [
    {"compound": "TNF-α", "values": [
      {"measurement": "NF-κB-dependent transcriptional activation", "setting": "NF-κB [1]", "value": "NF-κB-dependent transcriptional activation was observed after 2 hours"},
      {"measurement": "nuclear accumulation of p65", "setting": "L929 cells", "value": "remarkably accumulated p65 in the nucleus"}
    ]},
    {"compound": "N.N.[Cl][Pt][Cl]", "note": "[cisplatin]", "values": [
      {"measurement": "NF-κB-dependent transcriptional activation", "setting": "NF-κB [2]", "value": "did not enhance NF-κB-dependent transcriptional activation"},
      {"measurement": "IKK-α protein level", "setting": "U2OS cells [3]; 12 to 36 hours after cisplatin exposure (FIG. 2)", "value": "remarkably accumulated IKK-α"},
      {"measurement": "IKK-γ (NEMO) protein level", "setting": "U2OS cells [3]; after 12 hours of cisplatin treatment", "value": "transiently increased"},
      {"measurement": "p53 and p73α protein levels", "setting": "U2OS cells [3]; cisplatin exposure (FIG. 2)", "value": "remarkably induced at protein levels"},
      {"measurement": "amount of IKK-β", "setting": "U2OS cells [3]; cisplatin treatment", "value": "hardly changed the amount of IKK-β"},
      {"measurement": "phosphorylated form of IκB-α", "setting": "U2OS cells [3]; cisplatin treatment", "value": "remarkably increased the phosphorylated form of IκB-α"},
      {"measurement": "cell viability / apoptosis of U2OS cells", "setting": "U2OS cells [4]", "value": "underwent apoptosis in a time-dependent manner"},
      {"measurement": "expression of IKK-α and IKK-β mRNAs", "setting": "U2OS cells [5]; cisplatin 20 μM (FIG. 3)", "value": "not changed"},
      {"measurement": "expression of p53 and p73α mRNAs", "setting": "U2OS cells [5]; cisplatin 20 μM (FIG. 3)", "value": "not induced"},
      {"measurement": "expression level of IKK-γ mRNA", "setting": "U2OS cells [5]; cisplatin 20 μM, time-dependent (FIG. 3)", "value": "remarkable increase"},
      {"measurement": "cytoplasmic IκB-α", "setting": "U2OS cells [6]; U2OS cytoplasmic fraction (FIG. 4)", "value": "decreased in a time-dependent manner"},
      {"measurement": "nuclear accumulation of IKK-α", "setting": "U2OS cells [6]; U2OS nuclear fraction (FIG. 4)", "value": "remarkably accumulated IKK-α in the nucleus in a time-dependent manner"},
      {"measurement": "nuclear accumulation of p65-NF-κB subunit (RelA)", "setting": "U2OS cells [6]; U2OS nuclear fraction (FIG. 4)", "value": "almost no effect on the nuclear accumulation of p65-NF-κB subunit"}
    ]}
  ]
}
